Measurements as given in patent US7381736B2, “Thiazole and thiadiazole inhibitors of tyrosine phosphatases” (Metabasis Therapeutics, Inc., priority 2004, dated 2008).

What was measured:
FAO rat hepatoma cells = experiment: Cell based assays (IR phosphorylation assays); conditions: prodrug vs parent carboxylic-phosphonic acid
From the text: Antibodies and Chemicals. The antibody against phosphorylated insulin receptor (pIR) and the ELISA kit for detection of pIR were from Biosource (Camarillo, Calif.). Rabbit anti-IR/IGF-1R [pYpY1162/1163] phosphospecific antibody recognizes both the insulin receptor (IR) and the insulin-like growth factor-1 receptor (IGF-1R) phosphorylated at the active site tyrosine residues, 1162 and 1163 (1135 and 1136 for IGF-1R) (pIR/pIGF-1R). The Insulin Receptor [pYpY1162/1163] […] HRP-conjugated secondary antibodies were from Cell Signaling Technology (Beverly, Mass.). The ECL detection system was from Amersham (Buckinghamshire, UK), and human insulin was from Invitrogen (Carlsbad, Calif.).
Tissue Culture. FAO rat hepatoma cells were obtained from ECACC (#89042701) and maintained at 37° C. in a 5% CO2 environment in Dulbecco's modified Eagle's medium with high glucose (DMEM-high glucose) (4500 mg/liter) supplemented with 10% FBS and 50 units/ml penicillin, 100 µg/ml streptomycin and 0.292 mg/ml L-glutamine. For assays, cells were seeded in 24-well plates at a density of 2×10^5 cells/well and maintained until they reached confluency (about 3 days).
IR phosphorylation assays. Cells in 24-well plates were serum starved overnight in DMEM-low glucose (1000 mg/liter) without serum. […] The pIR/pIGF-1R signals were scanned (HP scanjet 3570c) and quantified (Scion Image). […]

melting point [°C]	SMILES	increase in activity in a cell-based assay as compared to the parent carboxylic-phosphonic acid (FAO rat hepatoma cells) [fold]
137 to 139	COC(=O)c1cccc(Oc2cccc(-c3nn(Cc4ccc(C(F)(F)P(=O)(O)O)c(Cl)c4)c(=Nc4ccc(Cl)c(Cl)c4)s3)c2)c1 [Example 9, 3-{3-[4-[3-Chloro-4-(difluoro-phosphono-methyl)-benzyl]-5-(3,4-dichloro-phenylimino)-4,5-dihydro-[1,3,4]thiadiazol-2-yl]-phenoxy}-benzoic acid methyl ester]	–
73 to 76	COC(=O)c1cccc(Oc2cccc(-c3nnc(N(Cc4ccc(C(F)(F)P(=O)(O)O)c(Cl)c4)c4ccc(Cl)c(Cl)c4)s3)c2)c1 [Example 48, 3-(3-{5-[[3-Chloro-4-(difluoro-phosphono-methyl)-benzyl]-(3,4-dichloro-phenyl)-amino]-[1,3,4]thiadiazol-2-yl}-phenoxy)-benzoic acid methyl ester]	–
153 to 156	O=C(O)c1cccc(Oc2cccc(-c3nn(Cc4ccc(C(F)(F)P(=O)(O)O)c(F)c4)c(=Nc4ccc(Cl)c(Cl)c4)s3)c2)c1 [Example 10, 3-(3-{5-(3,4-Dichloro-phenylimino)-4-[4-(difluoro-phosphono-methyl)-3-fluoro-benzyl]-4,5-dihydro-[1,3,4]thiadiazol-2-yl}-phenoxy)-benzoic acid]	–
212 to 215	O=C(O)c1cccc(Oc2cccc(-c3nn(Cc4ccc(C(F)(F)P(=O)(O)O)c(Cl)c4)c(=Nc4ccc(Cl)c(Cl)c4)s3)c2)c1 [Example 8, 3-{3-[4-[3-Chloro-4-(difluoro-phosphono-methyl)-benzyl]-5-(3,4-dichloro-phenylimino)-4,5-dihydro-[1,3,4]thiadiazol-2-yl]-phenoxy}-benzoic acid]	–
–	CC(C)(C)C(=O)OCOC(=O)c1ccc(-c2csc(NCc3ccc(C(F)(F)P(=O)(O)OCOC(=O)C(C)(C)C)c(Br)c3)n2)cc1 [4-[2-(3-Bromo-4-{[(2,2-dimethyl-propionyloxymethoxy)-hydroxy-phosphoryl]-difluoro-methyl}-benzylamino)-thiazol-4-yl]-benzoic acid 2,2-dimethyl-propionyloxymethyl ester]	~10
178 to 180	O=C(O)c1cccc(Oc2cccc(-c3nnc(N(Cc4ccc(C(F)(F)P(=O)(O)O)c(Cl)c4)c4ccc(Cl)c(Cl)c4)s3)c2)c1 [Example 46, 3-(3-{5-[[3-Chloro-4-(difluoro-phosphono-methyl)-benzyl]-(3,4-dichloro-phenyl)-amino]-[1,3,4]thiadiazol-2-yl}-phenoxy)-benzoic acid]	–
137 to 139	COC(=O)c1cccc(Oc2cccc(-c3nn(Cc4ccc(C(F)(F)P(=O)(O)O)c(F)c4)c(=Nc4ccc(Cl)c(Cl)c4)s3)c2)c1 [Example 11, 3-(3-{5-(3,4-Dichloro-phenylimino)-4-[4-(difluoro-phosphono-methyl)-3-fluoro-benzyl]-4,5-dihydro-[1,3,4]thiadiazol-2-yl}-phenoxy)-benzoic acid methyl ester]	–
